Measured values as given in ChEMBL document CHEMBL1201862, “PubChem BioAssay data set” (2004).
Activity calls are given as the source filed them.

Legend:
Procathepsin L = Procathepsin L (Homo sapiens, UniProt P07711); experiment: CTSL1 protease inhibition – biochemical, QFRET, 1536-well, counter-screen for M1/M17 aminopeptidase inhibitor project, dose response (AID 2214)
Aspartyl aminopeptidase = target: T1, Aspartyl aminopeptidase (Plasmodium falciparum 3D7, UniProt Q8I2J3); experiment: Counterscreen for inhibitors of M1 and M17 aminopeptidases: QFRET-based biochemical high throughput dose response assay for inhibitors of the Plasmodium falciparum M18 Aspartyl Aminopeptidase (PFM18AAP). [Related PubChem assays: 1619 (Screening assay (M17LAP inhibitors).), 1445 (Screening assay (M1AAP inhibitors).)]
T1 sequence (Q8I2J3 whole entry): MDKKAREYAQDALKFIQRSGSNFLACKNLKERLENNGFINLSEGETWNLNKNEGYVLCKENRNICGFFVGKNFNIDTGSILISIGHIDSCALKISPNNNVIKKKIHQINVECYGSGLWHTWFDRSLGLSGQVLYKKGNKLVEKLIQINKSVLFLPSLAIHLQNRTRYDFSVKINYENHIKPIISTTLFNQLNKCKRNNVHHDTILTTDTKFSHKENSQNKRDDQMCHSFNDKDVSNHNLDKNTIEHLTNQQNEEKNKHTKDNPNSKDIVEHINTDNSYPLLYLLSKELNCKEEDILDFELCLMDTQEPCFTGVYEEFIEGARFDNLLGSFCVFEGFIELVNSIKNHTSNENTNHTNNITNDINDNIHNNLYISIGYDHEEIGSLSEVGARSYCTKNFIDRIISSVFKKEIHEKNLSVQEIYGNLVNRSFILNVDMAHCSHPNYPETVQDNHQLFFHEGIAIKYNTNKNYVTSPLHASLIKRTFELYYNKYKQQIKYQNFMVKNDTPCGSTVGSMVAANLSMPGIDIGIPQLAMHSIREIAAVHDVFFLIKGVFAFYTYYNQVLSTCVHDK

Leucine aminopeptidase = target: T2, Leucine aminopeptidase (Plasmodium falciparum 3D7, UniProt Q8IL11); experiment: P. falciparum M17LAP inhibitors, primary screen, biochemical, fluorogenic H-Leu-NHMec substrate, 1536-well (AID 1619); type: functional
T2 sequence (Q8IL11 whole entry): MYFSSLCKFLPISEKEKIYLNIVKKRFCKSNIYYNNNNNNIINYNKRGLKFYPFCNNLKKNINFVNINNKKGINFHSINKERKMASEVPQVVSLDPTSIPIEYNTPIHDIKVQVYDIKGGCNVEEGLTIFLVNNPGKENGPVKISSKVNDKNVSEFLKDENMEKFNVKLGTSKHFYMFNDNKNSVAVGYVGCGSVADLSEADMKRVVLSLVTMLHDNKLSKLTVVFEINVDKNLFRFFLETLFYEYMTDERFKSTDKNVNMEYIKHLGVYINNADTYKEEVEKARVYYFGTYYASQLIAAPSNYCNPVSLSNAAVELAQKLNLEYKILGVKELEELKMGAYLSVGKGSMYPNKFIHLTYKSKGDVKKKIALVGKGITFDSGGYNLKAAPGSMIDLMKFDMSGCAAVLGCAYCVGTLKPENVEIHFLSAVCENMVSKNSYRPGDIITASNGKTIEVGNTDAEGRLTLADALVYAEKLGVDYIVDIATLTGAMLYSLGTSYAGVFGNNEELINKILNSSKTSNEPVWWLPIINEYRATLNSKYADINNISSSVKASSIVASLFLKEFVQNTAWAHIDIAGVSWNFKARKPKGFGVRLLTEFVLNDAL

[1] = CellTiter-Glo luminescence survival assay, SW480 colon tumor line, concentration-response curve, half-maximal inhibitory concentration (AID 1117338); type: functional
[2] = HEK-293T viability loss after treatment – luminescence, T-cell screen hits, cytotoxicity control for TCR NF-kB inhibitor project, dose response (AID 489026); type: functional, cell-based;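 note: cells exposed to compound about 14 hours before the viability readout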
[3] = cytotoxicity toward HCT116 cells – cell-based, CellTiter-Glo luminescence, IC50, dose response (AID 1117332); type: functional; conditions: HCT-116
[4] = cytotoxicity toward HT-29 cells – cell-based, CellTiter-Glo luminescence, IC50, dose response (AID 1117330); type: functional
[5] = RKO cell viability reduction, dose response, CellTiter-Glo luminescence (AID 1117322); type: functional
[6] = cytotoxicity toward Colo320 cells – cell-based, CellTiter-Glo luminescence, IC50, dose response (AID 1117334); type: functional; conditions: COLO 320
[7] = Reduced DLD-1 viability, concentration-response, CellTiter-Glo luminescence (AID 1117352); type: functional
[8] = SNU-C1 cell viability reduction, dose response, CellTiter-Glo luminescence (AID 1117323); type: functional, cell-based
[9] = growth inhibition of PfATP4-mutant resistant parasites – NITD609-resistant line, SYBR Green, dry powder, dose response (AID 1159571); type: functional, cell-based;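 note: parasites synchronized at ring stage by sorbitol before testing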
[10] = Plasmodium falciparum Dd2 Sybr green parasite growth Measured in Cell-Based and Microorganism Combination System Using Plate Reader - 2153-01_Inhibitor_Dose_DryPowder_Activity_Set3.; type: functional
[11] = growth inhibition of yeast DHODH-expressing 3D7 parasites – SYBR Green, dry powder samples, dose response (AID 1159570); type: functional, cell-based;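 note: parasite growth measured after 72 hours of compound exposure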
[12] = Dd2 malaria parasite growth inhibition potency – SYBR Green, dry powder samples, dose response (AID 1159566); type: functional, cell-based;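 note: potency for growth inhibition with lower SYBR green DNA signal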
[13] = P. falciparum Dd2 growth inhibitors, dose response, SYBR Green, cherry-picked samples (AID 1159567); type: functional, cell-based
[14] = toxicity to human HepG2 hepatoma cells – cell-based, plate reader, dry powder samples, cytotoxicity control, dose response (AID 1159569); type: functional;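 note: inhibitor potency with signal falling toward the positive control level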
[15] = target: T3, Replicative DNA helicase DnaB (Mycobacterium tuberculosis, UniProt P9WMR3); experiment: DnaB intein splicing inhibitors, dose response, biochemical, cell-free fluorescence (AID 449749); type: functional
T3 sequence (P9WMR3 whole entry): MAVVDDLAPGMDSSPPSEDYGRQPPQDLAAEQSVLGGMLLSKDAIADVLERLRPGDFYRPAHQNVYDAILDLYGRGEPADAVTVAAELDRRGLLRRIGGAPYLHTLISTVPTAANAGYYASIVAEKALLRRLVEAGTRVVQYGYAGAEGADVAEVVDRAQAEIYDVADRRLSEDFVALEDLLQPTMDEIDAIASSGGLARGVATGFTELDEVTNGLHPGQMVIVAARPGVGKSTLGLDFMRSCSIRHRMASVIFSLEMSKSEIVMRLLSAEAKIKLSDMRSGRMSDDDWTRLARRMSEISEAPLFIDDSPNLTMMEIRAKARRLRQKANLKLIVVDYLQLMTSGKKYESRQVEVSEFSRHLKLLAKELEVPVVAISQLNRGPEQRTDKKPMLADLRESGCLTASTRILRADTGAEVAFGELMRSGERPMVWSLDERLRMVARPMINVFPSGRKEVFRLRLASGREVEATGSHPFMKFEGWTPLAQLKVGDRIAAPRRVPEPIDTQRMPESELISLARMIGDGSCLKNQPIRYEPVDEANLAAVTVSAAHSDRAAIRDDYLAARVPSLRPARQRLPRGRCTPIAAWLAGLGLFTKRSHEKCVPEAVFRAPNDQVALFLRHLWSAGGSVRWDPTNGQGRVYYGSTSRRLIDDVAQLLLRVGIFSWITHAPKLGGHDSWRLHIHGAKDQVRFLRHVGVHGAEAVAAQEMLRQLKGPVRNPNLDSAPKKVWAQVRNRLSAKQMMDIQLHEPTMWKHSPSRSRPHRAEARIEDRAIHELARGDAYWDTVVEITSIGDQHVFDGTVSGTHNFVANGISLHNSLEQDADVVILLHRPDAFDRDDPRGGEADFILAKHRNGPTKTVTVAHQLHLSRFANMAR

Vero [16] = experiment: cells; type: functional, cell-based; conditions: Chlorocebus sabaeus
Vero [17] = experiment: mammalian cell viability reduction – secondary assay, cytotoxicity control for West Nile virus antiviral project, dose response (AID 1650); type: functional; conditions: Chlorocebus sabaeus
Protein RecA = target: T4, Protein RecA (Mycobacterium tuberculosis, UniProt P9WHJ3); experiment: Fluorescence Cell-Free Homogeneous Dose Retest to Identify Inhibitors of RecA-Intein Splicing Activity. [Related pubchem assays (depositor defined):AID2097, AID2223, AID489010, AID492950]; type: functional
T4 sequence (P9WHJ3 whole entry): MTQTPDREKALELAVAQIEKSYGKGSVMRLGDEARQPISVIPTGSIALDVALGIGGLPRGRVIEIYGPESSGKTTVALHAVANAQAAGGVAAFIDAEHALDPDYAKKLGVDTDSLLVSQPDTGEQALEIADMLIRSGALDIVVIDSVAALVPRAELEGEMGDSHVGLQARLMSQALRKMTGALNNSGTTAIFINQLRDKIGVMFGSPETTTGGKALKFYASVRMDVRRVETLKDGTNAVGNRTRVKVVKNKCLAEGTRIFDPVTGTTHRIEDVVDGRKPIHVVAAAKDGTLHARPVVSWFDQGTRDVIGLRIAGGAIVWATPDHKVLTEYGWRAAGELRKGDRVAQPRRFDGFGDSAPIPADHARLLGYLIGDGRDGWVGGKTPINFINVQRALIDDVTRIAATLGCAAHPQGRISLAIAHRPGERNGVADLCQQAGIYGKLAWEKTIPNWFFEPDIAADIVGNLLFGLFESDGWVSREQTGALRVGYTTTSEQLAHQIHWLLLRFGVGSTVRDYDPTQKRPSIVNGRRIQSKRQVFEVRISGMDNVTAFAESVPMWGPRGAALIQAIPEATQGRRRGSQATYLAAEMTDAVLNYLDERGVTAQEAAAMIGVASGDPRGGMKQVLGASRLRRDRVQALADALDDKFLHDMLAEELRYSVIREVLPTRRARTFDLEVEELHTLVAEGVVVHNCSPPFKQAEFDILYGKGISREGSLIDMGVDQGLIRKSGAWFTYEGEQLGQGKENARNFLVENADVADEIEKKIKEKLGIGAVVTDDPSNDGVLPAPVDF

Vero [18] = experiment: cells; type: functional; conditions: Chlorocebus sabaeus
[19] = target: T5, Heat shock factor protein 1 (Mus musculus, UniProt P38532); experiment: enhancement of HSF1-driven luciferase signal – cell-based, NIH3T3, luminescence, dose retest, confirmation (AID 435004); type: functional;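 note: stress induced by proteasome inhibitor MG132 added 30 min after compound; luciferase reporter driven by HSF1 response element in NIH3T3 cells; actives raise luminescence as potentiators of the MG132 stress response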
T5 sequence (P38532 whole entry): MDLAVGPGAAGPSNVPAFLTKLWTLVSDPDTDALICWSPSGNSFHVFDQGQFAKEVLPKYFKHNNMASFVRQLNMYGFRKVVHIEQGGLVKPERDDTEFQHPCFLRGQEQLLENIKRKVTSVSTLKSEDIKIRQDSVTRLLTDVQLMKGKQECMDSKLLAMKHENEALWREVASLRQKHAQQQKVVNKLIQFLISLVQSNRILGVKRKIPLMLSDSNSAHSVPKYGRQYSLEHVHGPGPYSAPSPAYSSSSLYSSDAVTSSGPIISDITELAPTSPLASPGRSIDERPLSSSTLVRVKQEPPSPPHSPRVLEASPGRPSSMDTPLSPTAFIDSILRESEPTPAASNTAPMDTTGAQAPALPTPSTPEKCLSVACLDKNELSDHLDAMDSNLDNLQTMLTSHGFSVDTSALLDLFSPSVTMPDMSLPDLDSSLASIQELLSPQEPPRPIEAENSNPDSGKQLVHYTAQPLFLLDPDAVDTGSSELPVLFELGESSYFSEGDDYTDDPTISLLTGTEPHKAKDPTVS

Sequence of Procathepsin L (P07711 whole entry): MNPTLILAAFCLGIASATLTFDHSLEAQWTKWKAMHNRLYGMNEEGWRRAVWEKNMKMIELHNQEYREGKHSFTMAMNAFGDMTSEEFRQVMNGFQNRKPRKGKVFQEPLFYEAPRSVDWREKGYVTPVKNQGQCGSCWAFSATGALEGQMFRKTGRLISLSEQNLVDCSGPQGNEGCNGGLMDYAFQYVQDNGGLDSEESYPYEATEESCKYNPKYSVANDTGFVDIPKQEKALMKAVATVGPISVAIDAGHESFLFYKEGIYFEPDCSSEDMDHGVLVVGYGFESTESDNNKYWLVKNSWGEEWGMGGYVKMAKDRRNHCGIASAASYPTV

COC(=O)c1c(NC(=O)C2CC=CCC2C(=O)O)sc(C)c1C (stereo unspecified)
IC50 (Procathepsin L): > 59.6 µM (not active) | IC50 (Aspartyl aminopeptidase): > 73.5 µM (not active) | IC50 (Leucine aminopeptidase): 4.32 µM (active)

Nc1ncn([C@@H]2O[C@H](CO)[C@@H](O)[C@H]2O)c(=O)n1 [AZACITIDINE]
IC50 [1]: > 6.67 µM (inactive) | IC50 [2]: > 80 µM (inactive) | IC50 [3]: 3.04 µM (active) | IC50 [4]: 12.5 µM (inactive) | IC50 [5]: 7.4 µM (inactive) | IC50 [6]: 12.3 µM (inactive) | IC50 [7]: 2.55 µM (active) | IC50 [8]: 1.8 µM (active)

CCc1cc2ccc(C)cc2nc1SCC(=O)Nc1cc(OC)c(OC)cc1C(=O)O
IC50 (Procathepsin L): > 59.6 µM (not active) | IC50 (Aspartyl aminopeptidase): > 73.5 µM (not active) | IC50 (Leucine aminopeptidase): < 1 µM (active)

CCCNC(=O)N1[C@H](C#N)[C@H](c2ccc(-c3cccnc3)cc2)[C@H]1CO
AC50 [9]: 1.16 µM (active) | AC50 [10]: 0.927 µM (active) | AC50 [11]: > 39 µM (inactive) | AC50 [12]: 0.822 µM (active) | AC50 [13]: 1.49 µM (active) | AC50 [14]: > 100 µM (inactive)

Cc1ccccc1NC(=O)C(=Cc1ccc(C(=O)O)cc1)C(=O)Nc1ccccc1C
AC50 [15]: 3.66 µM (active) | IC50 (Vero [16]): > 25 µM (active) | CC50 (Vero [17]): 7.39 µM (active) | EC50 (Protein RecA): 5.08 µM (active) | CC50 (Vero [18]): 14.7 µM (active) | EC50 [19]: 29 µM (active)
